Experimental data reported in BindingDB's records for patent US12065430 (Taiho Pharmaceutical, 2024).

Biological target: T1, Son of sevenless homolog 1 [564-1049]/GTPase KRas [G12C] (UniProt P01116+Q07889, G12C)
T1 construct: 564-1049
Test: Evaluation of Inhibitory Activity of Compounds on KRAS G12C Nucleotide (GDP-GTP) Exchange Reaction
Description: The inhibitory activity of compounds on exchange reaction of GDP into GppNHp in Bodipy (trademark) FL-bound KRAS G12C was examined by fluorescence measurement using human recombinant KRAS G12C and SOS1 proteins.For the preparation of KRAS G12C to which Bodipy FL GDP was bound, first, […] KRAS G12C (amino acid region: 1-169) and 1 mM Bodipy FL GDP (Invitrogen, G22360) were incubated for 1 hour in a buffer (20 mM Tris-HCl (pH 7.5), 50 mM NaCl, 1 mM DTT) in ice in the presence of 2.5 mM EDTA. Thereafter, MgCl2 with a final concentration of 10 mM was added, and the mixture was incubated at room temperature for 30 minutes. The protein was allowed to pass through a NAP-5 column to remove free nucleotides and was used for compound evaluation.For the measurement of the inhibitory activity of compounds on nucleotide exchange reaction, first, the compound of the present invention was diluted stepwise with dimethyl sulfoxide (DMSO). Subsequently, a solution of the gradually diluted compound of the present invention in DMSO (the final concentration of DMSO: 5%) and KRAS G12C (25 nM) bound to Bodipy FL GDP were added to a reaction buffer (20 mM Tris-HCl (pH 7.5), 100 mM NaCl, 1 mM MgCl2, 2 mM DTT, 0.1% Tween20), followed by preincubation at 25° C. for 4 hours. Thereafter, Son of Sevenless Homolog 1 (SOS1, amino acid region: 564-1049) and GppNHp (GMPPNP, Jena Bioscience GmbH, NU-401-50) were added such that their final concentration was 100 nM and 1 μM respectively, followed by reaction for 30 minutes. The change in fluorescence intensity of Bodipy FL (excitation wavelength: 485 nm, fluorescence wavelength: 520 nm) immediately after the start of reaction and after 30 minutes from the start of reaction was standardized. The signal value for only DMSO was determined to be 0% inhibition, and the signal value for no addition of GppNHp was determined to be 100% inhibition. The compound concentration at which 50% inhibition is achieved was determined to be IC50 (nM), and was calculated.

T1 sequence (P01116 whole entry G12C): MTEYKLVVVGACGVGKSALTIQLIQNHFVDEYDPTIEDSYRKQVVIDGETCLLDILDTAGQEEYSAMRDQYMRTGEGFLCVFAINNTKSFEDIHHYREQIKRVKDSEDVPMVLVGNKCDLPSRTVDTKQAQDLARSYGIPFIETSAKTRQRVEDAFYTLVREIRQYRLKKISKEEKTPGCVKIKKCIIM
T1 sequence (Q07889 564-1049): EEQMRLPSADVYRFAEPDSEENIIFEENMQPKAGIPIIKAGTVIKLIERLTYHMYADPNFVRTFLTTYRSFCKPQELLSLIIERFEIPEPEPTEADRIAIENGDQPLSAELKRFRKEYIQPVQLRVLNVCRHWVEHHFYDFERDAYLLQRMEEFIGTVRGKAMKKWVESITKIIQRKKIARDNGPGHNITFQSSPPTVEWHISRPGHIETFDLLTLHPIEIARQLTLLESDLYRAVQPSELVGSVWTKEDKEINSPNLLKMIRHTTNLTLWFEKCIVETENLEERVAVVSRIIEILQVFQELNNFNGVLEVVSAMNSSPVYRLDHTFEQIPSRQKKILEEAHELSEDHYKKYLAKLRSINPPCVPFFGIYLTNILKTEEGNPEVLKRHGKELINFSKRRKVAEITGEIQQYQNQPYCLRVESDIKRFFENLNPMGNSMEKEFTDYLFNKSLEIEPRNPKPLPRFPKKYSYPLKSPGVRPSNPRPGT

Compound	IC50 [nM]
C=CC(=O)N1CC(NC(=O)c2cnc(CNc3n[nH]c4cc(Cl)c(C(C)(C)C)cc34)n2C)C1 [US12065430, Example 1]	16
C=CC(=O)N1CC(NC(=O)c2sc(CNc3n[nH]c4cc(Cl)c(C(C)(C)C)cc34)nc2C)C1 [US12065430, Example 2]	365
C=CC(=O)N1CC(NC(=O)c2cnc(C(C)Nc3n[nH]c4cc(Cl)c(C(C)(C)C)cc34)n2C)C1 (configuration not stated) [US12065430, Example 4]	1560
C=CC(=O)N1CC(NC(=O)c2c(Cl)c(CNc3n[nH]c4cc(Cl)c(C(C)(C)C)cc34)nn2C)C1 [US12065430, Example 6]	791
C=CC(=O)N1CC(NC(=O)c2csc(CNc3n[nH]c4cc(Cl)c(C(C)(C)C)cc34)n2)C1 [US12065430, Example 7]	4260
C=CC(=O)N1CC(NC(=O)c2cnc(CNc3n[nH]c4cc(Cl)c(C(C)(C)C)cc34)s2)C1 [US12065430, Example 8]	783
C=CC(=O)N1CC(NC(=O)c2cc(CNc3n[nH]c4cc(Cl)c(C(C)(C)C)cc34)nn2C)C1 [US12065430, Example 9]	3140
C=CC(=O)N1CC(NC(=O)c2c(C)c(CNc3n[nH]c4cc(Cl)c(C(C)(C)C)cc34)nn2C)C1 [US12065430, Example 10]	129
C=CC(=O)N1CC(NC(=O)c2oc(CNc3n[nH]c4cc(Cl)c(C(C)(C)C)cc34)nc2C)C1 [US12065430, Example 11]	1060
C=CC(=O)N1CC(NC(=O)c2c(C)nc(CNc3n[nH]c4cc(Cl)c(C(C)(C)C)cc34)n2CC)C1 [US12065430, Example 12]	16
C=CC(=O)N1CC(NC(=O)c2c(C)nc(CNc3n[nH]c4cc(Cl)c(C(C)(C)C)cc34)n2C(C)C)C1 [US12065430, Example 13]	15
C=CC(=O)N1CC(NC(=O)c2c(C)nc(CNc3n[nH]c4cc(Cl)c(C(C)(C)C)cc34)n2CCOC)C1 [US12065430, Example 14]	24
C=CC(=O)N1CC(NC(=O)c2c(C)nc(CNc3n[nH]c4cc(Cl)c(C(C)(C)C)cc34)n2Cc2ccccc2)C1 [US12065430, Example 15]	84
C=CC(=O)N1CC(NC(=O)c2c(C)nc(CNc3n[nH]c4cc(Cl)c(C(C)(C)C)cc34)n2CCN(C)C)C1 [US12065430, Example 16]	25
C=CC(=O)N1CC(NC(=O)c2c(C)nc(CNc3n[nH]c4cc(Cl)c(C(C)(C)C)cc34)n2C2CCCC2)C1 [US12065430, Example 17]	17
C=CC(=O)N1CC(NC(=O)c2c(C)nc(CNc3n[nH]c4cc(Cl)c(C(C)(C)C)cc34)n2CCCC)C1 [US12065430, Example 18]	12

Compound	IC50 [nM]
C=CC(=O)N1CC(NC(=O)c2c(C)nc(CNc3n[nH]c4cc(Cl)c(C(C)(C)C)cc34)n2CCC)C1 [US12065430, Example 19]	9
C=CC(=O)N1CC(NC(=O)c2c(C)nc(CNc3n[nH]c4cc(Cl)c(C(C)(C)C)cc34)n2C(C)CC)C1 (configuration not stated) [US12065430, Example 20]	31
C=CC(=O)N1CC(NC(=O)c2c(C)nc(CNc3n[nH]c4cc(Cl)c(C(C)(C)C)cc34)n2C(F)F)C1 [US12065430, Example 21]	58
C=CC(=O)N1CC(NC(=O)c2c(C)nc(CNc3n[nH]c4cc(Cl)c(C(C)(C)C)cc34)n2CC(F)(F)F)C1 [US12065430, Example 22]	55
C=CC(=O)N1CC(NC(=O)c2c(C)nc(CNc3n[nH]c4cc(Cl)c(C(C)(C)C)cc34)n2C2CC2)C1 [US12065430, Example 23]	7
C=CC(=O)N1CC(NC(=O)c2c(C)nc(CNc3n[nH]c4cc(Cl)c(C(C)(C)C)cc34)n2C(C)(C)C)C1 [US12065430, Example 24]	35
C=CC(=O)N1CC(NC(=O)c2c(C(F)(F)F)nc(CNc3n[nH]c4cc(Cl)c(C(C)(C)C)cc34)n2C)C1 [US12065430, Example 25]	163
C=CC(=O)N1CC(NC(=O)c2c(I)nc(CNc3n[nH]c4cc(Cl)c(C(C)(C)C)cc34)n2C)C1 [US12065430, Example 26]	69
C=CC(=O)N1CC(NC(=O)c2c(Br)nc(CNc3n[nH]c4cc(Cl)c(C(C)(C)C)cc34)n2C)C1 [US12065430, Example 27]	8
C=CC(=O)N1CC(NC(=O)c2c(C#N)nc(CNc3n[nH]c4cc(Cl)c(C(C)(C)C)cc34)n2C)C1 [US12065430, Example 28]	70
C=CC(=O)N1CC(NC(=O)c2c(Cl)nc(CNc3n[nH]c4cc(Cl)c(C(C)(C)C)cc34)n2C)C1 [US12065430, Example 29]	6
C=CC(=O)N1CC(NC(=O)c2c(F)nc(CNc3n[nH]c4cc(Cl)c(C(C)(C)C)cc34)n2C)C1 [US12065430, Example 30]	11
C=CC(=O)N1CC(NC(=O)c2c(CC)nc(CNc3n[nH]c4cc(Cl)c(C(C)(C)C)cc34)n2C)C1 [US12065430, Example 31]	642
C=CC(=O)N1CC(NC(=O)c2c(C(F)(F)F)nc(CNc3n[nH]c4cc(Cl)c(C(C)(C)C)cc34)n2C(C)C)C1 [US12065430, Example 32]	50
C=CC(=O)N1CC(NC(=O)c2c(F)nc(CNc3n[nH]c4cc(Cl)c(C(C)(C)C)cc34)n2C(C)C)C1 [US12065430, Example 34]	13

Further lines, results first:

IC50 [nM]	Compound
8	C=CC(=O)N1CC(NC(=O)c2c(Cl)nc(CNc3n[nH]c4cc(Cl)c(C(C)(C)C)cc34)n2C(C)C)C1 [US12065430, Example 35]
5480	C=CC(=O)N1CC(NC(=O)c2cnc(CNc3n[nH]c4cc(Cl)c(C)cc34)n2C)C1 [US12065430, Example 37]
2170	C=CC(=O)N1CC(NC(=O)c2cnc(CNc3n[nH]c4cc(Cl)c(C=C)cc34)n2C)C1 [US12065430, Example 38]
870	C=CC(=O)N1CC(NC(=O)c2cnc(CNc3n[nH]c4cc(Cl)c(CC)cc34)n2C)C1 [US12065430, Example 39]
27	C=CC(=O)N1CC(NC(=O)c2cnc(CNc3n[nH]c4cc(Cl)c(C(C)(C)C)nc34)n2C)C1 [US12065430, Example 40]
14	C=CC(=O)N1CC(NC(=O)c2c(C)nc(CNc3n[nH]c4cc(C)c(C(C)(C)C)cc34)n2C)C1 [US12065430, Example 41]
68	C=CC(=O)N1CC(NC(=O)c2c(C)nc(CNc3n[nH]c4ccc(C(C)(C)C)cc34)n2C(C)C)C1 [US12065430, Example 42]
809	C=CC(=O)N1CC(NC(=O)c2c(Cl)nc(CNc3n[nH]c4cc(Cl)c(C(=C)C(F)(F)F)cc34)n2C(C)C)C1 [US12065430, Example 43]
180	C=CC(=O)N1CC(NC(=O)c2c(Cl)nc(CNc3n[nH]c4cc(Cl)c(C5(C(F)(F)F)CC5)cc34)n2C(C)C)C1 [US12065430, Example 44]
24	C=CC(=O)N1CC(NC(=O)c2c(Cl)nc(CNc3n[nH]c4cc(Cl)c(C(C)C)cc34)n2C(C)C)C1 [US12065430, Example 45]
1730	C=CC(=O)N1CCC(NC(=O)c2c(C)nc(CNc3n[nH]c4cc(Cl)c(C(C)(C)C)cc34)n2C)CC1 [US12065430, Example 47]
208	C=CC(=O)N1CC(N(C)C(=O)c2c(C)nc(CNc3n[nH]c4cc(Cl)c(C(C)(C)C)cc34)n2C)C1 [US12065430, Example 49]
4280	C=CC(=O)N1CCN(C(=O)c2c(C)nc(CNc3n[nH]c4cc(Cl)c(C(C)(C)C)cc34)n2C)CC1 [US12065430, Example 50]
42	C=CC(=O)N(C)C1CN(C(=O)c2c(C)nc(CNc3n[nH]c4cc(Cl)c(C(C)(C)C)cc34)n2C)C1 [US12065430, Example 51]
42	C=CC(=O)N1CC(NC(=O)c2c(C)nc(CNc3n[nH]c4cc(Cl)c(C(C)(C)C)cc34)n2C)C(F)(F)C1 (configuration not stated) [US12065430, Example 53]
301	C=CC(=O)N1C[C@H](NC(=O)c2c(C)nc(CNc3n[nH]c4cc(Cl)c(C(C)(C)C)cc34)n2C)C2(CC2)C1 [US12065430, Example 54]
19	C=CC(=O)N1C[C@@H](CC#N)[C@@H](NC(=O)c2c(C)nc(CNc3n[nH]c4cc(Cl)c(C(C)(C)C)cc34)n2C)C1 [US12065430, Example 65]
20	C=CC(=O)N1C[C@@H](CF)[C@@H](NC(=O)c2c(C)nc(CNc3n[nH]c4cc(Cl)c(C(C)(C)C)cc34)n2C)C1 [US12065430, Example 66]
24	C=CC(=O)N1C[C@@H](COC)[C@@H](NC(=O)c2c(C)nc(CNc3n[nH]c4cc(Cl)c(C(C)(C)C)cc34)n2C)C1 [US12065430, Example 67]
99	C=CC(=O)N1C[C@@H](CN(C)C)[C@@H](NC(=O)c2c(C)nc(CNc3n[nH]c4cc(Cl)c(C(C)(C)C)cc34)n2C)C1 [US12065430, Example 68]
52	C=CC(=O)N1CC[C@@H](NC(=O)c2c(Cl)nc(CNc3n[nH]c4cc(Cl)c(C(C)(C)C)cc34)n2C)C1 [US12065430, Example 73]
